{
  "source": "patent US20100028406A1",
  "about": "“TOPICAL DRUG DELIVERY BY IONTOPHORESIS” (UNIVERSITE DE GENEVE, priority 2005, published 2010)",
  "key": {"[1]": {"conditions": "iontophoresis, rabbit skin; cited from earlier work"}, "[2]": {"assay": "Iontophoresis across porcine skin in vitro, 3-compartment cells, acetaminophen as electroosmosis marker", "procedure": "Porcine ear skin, which is a well-accepted model for human skin (Dick and Scott, 1992; Sekkat et al., 2002), was used in these studies. Porcine ears were obtained from a local abattoir (Société d'Exploitation d'Abbatage, Annecy, France) a few hours after the sacrifice of the animals. The excised skin was then dermatomed (˜750 μm) on the same day and stored at −20° C. for a maximum of two months.\nIontophoresis was performed using vertical 3-compartment cells (FIG. 2). The skin was placed between two half-cells: the upper half, in contact with the SC, comprised two electrode/donor compartments, while the lower receiver compartment was in contact with the dermis. A flow-through system circulated phosphate-buffered normal saline (PBS: 16.8 mM Na2HPO4, 1.4 mM KH2PO4 and 136.9 mM NaCl; pH 7.4) through the receiver chamber (volume 4.7 mL) at a rate of 3 mL/h. Ag/AgCl electrodes were used throughout the study. The skin was allowed to equilibrate for one hour prior to the iontophoresis experiment. In order to reduce competition from Na^+ ions present in the donor, and thus to increase the permeation of VCV, most experiments were performed using a salt bridge assembly. This strategy consists of physically separating the anodal chamber (Ag electrode immersed in PBS pH 7.4) from the donor compartment (drug solution in contact with the SC) and employing a salt bridge (prepared by filling a 12 cm tubing with a warm aqueous solution of 3% agarose and 0.1 M NaCl and then allowed to cool) to electrically connect the two chambers. […] For control experiments without the salt bridge, the anodal compartment contained 1 mL of 10 mM VCV.HCl in PBS pH 7.4. The cathodal compartment contained PBS pH 7.4 in all the experiments. A constant current of 0.34 mA was applied for 7 hours (equivalent to a current density of 0.5 mA/cm^2).\nAcetaminophen (ACE, 15 mM) was included in the donor solution as a marker for electroosmotic flow. Being a small, polar and neutral molecule, it is transported mainly by convective solvent flow during iontophoresis. Therefore, its flux can be used to determine the contribution of electroosmosis to the total iontophoretic flux,\nwhere JEO represents the contribution of electroosmosis (EO) to delivery, vA→C is the convective solvent flow from the anode to cathode, and CD is the donor concentration of the drug.\nThe experiments were performed in sextuplicate, except for passive delivery (n=3), using the skin of as many different animals as possible. Samples were collected hourly and analyzed by high pressure liquid chromatography (HPLC). The HPLC system consisted of a 600 E Controller pump, an Autosampler Injector 717-plus, an In Line Degasser, and a UV 2487 dual λ Detector (Waters, Saint-Quentin Yvelines, France). The separation was performed on a Nucleosil® 100-5 C18 Nautilus column (L: 125 mm; ID: 4.6 mm; Macherey-Nagel, Hoerdt, France) with a 99:1 mixture of 0.1% trifluoroacetic acid (TFA) in water (pH 2.5): MeCN. The flow rate was 1 mL/min, the temperature was adjusted to 30° C., and 50 μL of sample were injected.\nThe iontophoretic flux (JTOT) of a charged species is considered to be the sum of two separate transport processes—electromigration (JEM) and electroosmosis (JEO), assuming negligible passive skin permeability (Sage Jr., 1995):\nJTOT,VCV=JEM,VCV+JEO,VCV (equation 2)\nBriefly, electromigration occurs as a result of increased molecular transport in the presence of an applied electric field, whereas electroosmosis refers to transport mediated by the bulk solvent flow across the skin (in the anode-to-cathode direction) due to the skin's permselectivity for cations under physiological conditions."}, "[3]": {"assay": "pKa and ionization state of ACV and VCV", "assay_type": "physicochemical", "conditions": "for ionization state in the donor phase: unbuffered formulations, ACV pH 6.3, VCV pH 5.7"}, "[4]": {"assay": "Cutaneous conversion of VCV to ACV in contact with skin (SC and dermis)", "assay_type": "in vitro ADME, porcine", "procedure": "(§1) The aqueous stability of VCV in the donor formulations was investigated by periodic sampling of solutions (2 and 10 mM in water with 15 mM acetaminophen) over a period of 44 hours. In addition, the impact of an electrical current (0.34 mA) on this stability was examined over the same period. The chemical hydrolysis of VCV was also investigated in the presence of PBS pH 7.4. The cutaneous conversion of VCV to ACV via hydrolytic cleavage of the ester bond was verified as follows. Cells were assembled as for an iontophoresis experiment. A 100 μM solution of VCV in PBS pH 7.4 was placed in all the cell compartments and left in contact with the skin (SC and dermis) for 4 hours. The compartments were assayed for ACV and VCV immediately afterwards."}, "[5]": {"conditions": "calculated (Denny, 2003); cited from earlier work"}, "[6]": {"assay": "Aqueous stability of VCV in donor formulations and in PBS pH 7.4", "assay_type": "physicochemical", "procedure": "as §1"}, "[7]": {"conditions": "topical 220 mM ACV formulation, rabbits in vivo; cited from earlier work"}, "[8]": {"conditions": "pH 7.4, 25°; cited from earlier work"}, "[9]": {"conditions": "human skin, 5% w/w (220 mM) ACV ointment, passive; cited from earlier work"}, "[10]": {"conditions": "cited from earlier work"}, "[11]": {"conditions": "guinea pig skin, 5% w/w (220 mM) ACV ointment, passive; cited from earlier work"}, "[12]": {"conditions": "cited from earlier work", "remark": "listed apart in the source"}},
  "note": "Read-outs that look alike come from different tables or passages of the source.",
  "data": [
    {"smiles": "CC12CCC3C(CC=C4CC(OC(=O)CN)CCC43C)C1CCC2=O", "note": "(centres unmarked) [glycyl ester of DHEA]", "values": [
      {"measurement": "increase in permeation compared to the parent DHEA", "setting": "[1]", "value": 3, "unit": "fold"}
    ]},
    {"smiles": "CC(C)[C@H](N)C(=O)OCCOCn1cnc2c(=O)[nH]c(N)nc21", "note": "[VCV, valaciclovir]", "values": [
      {"measurement": "mechanism of iontophoretic transport across the skin", "setting": "[2]", "value": "almost entirely to electromigration (EM)"},
      {"measurement": "average flux Jt=0-3 h", "setting": "[2]; pig, 2 mM", "value": "385±158", "unit": "nmol/cm^2/h"},
      {"measurement": "average flux Jt=0-3 h", "setting": "[2]; pig, 10 mM", "value": "479±258", "unit": "nmol/cm^2/h"},
      {"measurement": "flux Jt=0-7 h", "setting": "[2]; pig, 10 mM", "value": "510±219", "unit": "nmol/cm^2/h"},
      {"measurement": "amount reaching the receptor as fraction of the applied dose", "setting": "[2]; pig, 4 h, 2 mM", "value": 50, "unit": "%"},
      {"measurement": "EM contribution to the total flux", "setting": "[2]; pig, 7 h, 10 mM, pH 7.4", "value": 73, "unit": "%"},
      {"measurement": "transport number", "setting": "[2]; pig, 7 h, pH 7.4", "value": "~0.03"},
      {"measurement": "protonated fraction", "setting": "[3]; physiological pH", "value": "~50", "unit": "%"},
      {"measurement": "ionization state in the donor phase", "setting": "[3]", "value": "fully protonated"},
      {"measurement": "enzymatic conversion after contact with the SC", "setting": "[4]; 100 μM in PBS pH 7.4, 4 hours", "value": "not observed"},
      {"measurement": "hydrolysis after contact with the dermis", "setting": "[4]; 100 μM in PBS pH 7.4, 4 hours, receiver (dermal) compartment", "value": "completely hydrolyzed to ACV"},
      {"measurement": "calculated log P and log D values", "setting": "[5]", "value": "−0.78"},
      {"measurement": "prodrug converted to ACV", "setting": "[6]; PBS pH 7.4, over 7 hrs", "value": "~12", "unit": "%"},
      {"measurement": "VCV converted into ACV", "setting": "[6]; unbuffered aqueous solutions (2 and 10 mM) with acetaminophen, 44 hours, absence of a current", "value": "Less than 1%"},
      {"measurement": "extent of degradation of VCV", "setting": "[6]; unbuffered aqueous solutions, presence of a current (0.34 mA), over 7 hours", "value": "~1", "unit": "%"}
    ]},
    {"smiles": "Nc1nc2c(ncn2COCCO)c(=O)[nH]1", "note": "[ACV, acyclovir]", "values": [
      {"measurement": "dermal concentrations (microdialysis)", "setting": "[7]", "value": "below the limit of detection"},
      {"measurement": "aqueous solubility", "setting": "[8]", "value": 1300, "unit": "µg/mL"},
      {"measurement": "donor concentration-normalized flux", "setting": "[2]; pig, 7 h, 2 mM, pH 6.3", "value": 0.0024, "unit": "cm/h"},
      {"measurement": "mechanism of iontophoretic transport across the skin", "setting": "[2]; unbuffered formulations, ACV pH 6.3, VCV pH 5.7", "value": "entirely by EO"},
      {"measurement": "ionization state in the donor phase", "setting": "[3]", "value": "effectively uncharged"},
      {"measurement": "stability in contact with the skin, donor and receptor chambers", "setting": "[4]; 100 μM, 4 hours, SC and dermis", "value": "stable"},
      {"measurement": "in vitro flux", "setting": "[9]", "value": 0.24, "unit": "nmol/cm^2/h"},
      {"measurement": "ionized fraction", "setting": "[10]; pH 3.0", "value": 20, "unit": "%"},
      {"measurement": "ionized fraction", "setting": "[10]; pH 7.4", "value": 2, "unit": "%"},
      {"measurement": "calculated log P and log D values", "setting": "[5]", "value": "−1.76"},
      {"measurement": "in vitro flux", "setting": "[11]", "value": 0.21, "unit": "nmol/cm^2/h"},
      {"measurement": "donor concentration-normalized flux", "setting": "[12]; human skin, physiological pH, iontophoresis", "value": 0.0027, "unit": "cm/h"},
      {"measurement": "epidermal concentrations", "setting": "[12]; iontophoretic administration across human skin", "value": "~80", "unit": "µg/mL"}
    ]}
  ]
}
